{"source": "paper PMC6385203", "about": "“Mutations in the palm domain disrupt modulation of acid-sensing ion channel 1a currents by neuropeptides” (Scientific Reports, 2019)", "key": {"ASIC1a S240C": {"test_system": "ASIC1a S240C", "assay": "Modification of Cys mutant by MTSET", "assay_type": "cell-based, human", "settings": "1 mM MTSET 3 min, pH dependence of activation and SSD, n=4-6", "experimental": "(§1) Figure S2. Modification of Cys mutants by MTSET. To determine whether exposure to MTSET modified specific Cys mutants, we applied pH protocols that detect shifts in the pH dependence of activation and of steady-state desen sitization (SSD) to ASIC1a-e xpressing oocytes, before and after a 3-min exposure to 1mM MTSET. a, illustration of the experimental protocol at the example of the E97C mutant. The acidic solution was applied once every minute, except during the incubation with MTSET. b, ratio of current amplitudes obtained at pH6.5 and pH5 from the conditioning pH7.4, as a measure of the pH dependence of activation, before (open bars) and after MTSET expo sure (red bars). c, ratio of the current amplitude at pH5 from the conditioning pH7.15 / the current amplitude at pH5 obtained from the conditioning pH7.4, as an indication of the pH dependence of SSD, n=4-6. *, p<0.05; **, p<0.01; ***, p<0.001; ****, p<0.0001; different between control and MTSET condition, […]\n(§2) WT ASIC1a3,4. If a functional property is changed after MTSET incubation and its washout, it is concluded that the engineered Cys residue has been modified by MTSET. This analysis […]\n(§3) (1 picture or pasted object on this page, not shown here)"}, "ASIC1a E242C": {"test_system": "ASIC1a E242C", "assay": "Modification of Cys mutant by MTSET", "assay_type": "cell-based, human", "settings": "1 mM MTSET 3 min, pH dependence of activation and SSD, n=4-6", "experimental": "as §1, §2, §3"}, "ASIC1a E97C": {"test_system": "ASIC1a E97C", "assay": "Modification of Cys mutant by MTSET", "assay_type": "cell-based, human", "settings": "1 mM MTSET 3 min, pH dependence of activation and SSD, n=4-6", "experimental": "as §1, §2, §3"}, "ASIC1a F302C": {"test_system": "ASIC1a F302C", "assay": "Modification of Cys mutant by MTSET", "assay_type": "cell-based, human", "settings": "1 mM MTSET 3 min, pH dependence of activation and SSD, n=4-6", "experimental": "as §1, §2, §3"}, "ASIC1a L280C": {"test_system": "ASIC1a L280C", "settings": "L280C mutant; cited from earlier work", "description": "(§4) Based on in silico docking, mutagenesis and functional validation, our study points to the side cavities of the central vestibule as the most probable binding sites for the peptide FRRFa. […] The 40-amino acid peptide toxin PcTx1 binds into the acidic pocket and to the subunit interface ..."}, "[1]": {"test_system": "ENaC/degenerin ion channel family", "settings": "cited from earlier work", "description": "(§5) FaNaC-like channels have been described in mollusks and Hydra[8]–[10], but not in mammals. Mammals express FMRFa-related peptides that exert their pharmacological actions mainly by binding to G protein-coupled receptors. Mammalian FMRFa-like peptides contain more than four residues. Since they ..."}, "ASIC1a [2]": {"test_system": "ASIC1a", "settings": "cited from earlier work; for competition between functional effects: PcTx1 vs big dynorphin", "description": "as §4"}, "ASIC1a [3]": {"test_system": "ASIC1a", "settings": "cited from earlier work", "experimental": "Currently it is not known where in the ASICs the RFa peptides bind. […] Our docking studies predicted possible b ... || ASIC1a function was measured by two-electrode voltage-clamp after recombinant expression in Xenopus oocytes. The channels were activated by a pH5 stimulation solution from a conditioning solution of pH7.4. […] We measured the rate of FRRFa unbinding, as the disappearance of the sustained current after a 50-s incubation with 50 μM FRRFa, as 0.025 ± 0.005 s^−1 (n = 8, Fig. 2b)."}, "[4]": {"test_system": "ASIC1- and ASIC3-containing channels", "settings": "FMRFa and related peptides; cited from earlier work", "description": "as §5"}, "FaNaC": {"test_system": "FaNaC", "settings": "molluscan FaNaC; cited from earlier work", "description": "as §5"}}, "note": "Entries after “also recorded” stand apart in the source; their conditions may differ. Ends that are not written are not given here.", "data": [{"compound": "C[N+](C)(C)CCSS(C)(=O)=O", "note": "[MTSET, [2-(trimethylamonium)ethyl] methanethiosulfonate]", "values": [{"measurement": "modification by MTSET", "setting": "ASIC1a S240C", "value": "evidence for modification by MTSET; also recorded: exposure to MTSET changes the properties of the mutants E97C, S240C and E242C"}, {"measurement": "modification by MTSET", "setting": "ASIC1a E242C", "value": "evidence for modification by MTSET; also recorded: exposure to MTSET changes the properties of the mutants E97C, S240C and E242C"}, {"measurement": "modification by MTSET", "setting": "ASIC1a E97C", "value": "evidence for modification by MTSET; also recorded: exposure to MTSET changes the properties of the mutants E97C, S240C and E242C"}, {"measurement": "modification by MTSET", "setting": "ASIC1a F302C", "value": "evidence for modification by MTSET"}, {"measurement": "effect of MTSET modification on sustained current fraction", "setting": "ASIC1a L280C", "value": "strongly increases the sustained current fraction"}]}, {"compound": "N=C(N)NC(=O)c1nc(Cl)c(N)nc1N", "note": "[amiloride]", "values": [{"measurement": "inhibition of ENaC/degenerin channels", "setting": "[1]", "value": "inhibited by amiloride"}]}, {"compound": "PcTx1: 40-amino acid peptide toxin PcTx1 (EDCIPKWKGCVNRHGDCCEGLECWKRRRSFEVCVPKTPKT; ends and bridges not checked; cysteine pairing not given here; UniProt P60514 1-40, looked up)", "values": [{"measurement": "competition between functional effects", "setting": "ASIC1a [2]", "value": "a competition between the functional effects of PcTx1 and the peptide big dynorphin"}]}, {"compound": "Phe-Met-Arg-Phe-amide [FMRFa]", "values": [{"measurement": "requirement of pre-application", "setting": "ASIC1a [3]", "value": "affect ASIC1a currents only when pre-applied with the conditioning solution at pH 7.4"}, {"measurement": "effects on ASIC desensitization, sustained current and SSD", "setting": "[4]", "value": "slow the desensitization time course of ASIC1- and ASIC3-containing channels and induce a sustained (non-desensitizing) current as well as an acidic shift in the SSD pH dependence of ASIC1a"}, {"measurement": "channel activation", "setting": "FaNaC", "value": "activated by the neuropeptide Phe-Met-Arg-Phe-amide (FMRFa)"}]}, {"compound": "big dynorphin: a remotely related Arg-rich 32-amino acid peptide", "values": [{"measurement": "competition between functional effects", "setting": "ASIC1a [2]", "value": "a competition between the functional effects of PcTx1 and the peptide big dynorphin"}, {"measurement": "modulation of ASIC1a", "setting": "ASIC1a [2]", "value": "modulates ASIC1a in a similar way as RFa peptides do"}]}]}
